Data taken from paper PMC7190597, “Characterisation of four hotdog-fold thioesterases for their implementation in a novel organic acid production system” (Applied Microbiology and Biotechnology, 2020).

Key:
[1] = biological target: T1, PA2801 (Pseudomonas aeruginosa, UniProt Q9I042); experiment: DTNB assay on clarified lysate, empty-vector lysate control; type: biochemical; conditions: 0.2 mM substrate, 100 mM triethanolamine pH 8, 25 °C, 0.4 mM DTNB
T1 construct: full-length in pET29a, expressed in E. coli BL21(DE3), clarified lysate
T1 sequence (Q9I042 1-134): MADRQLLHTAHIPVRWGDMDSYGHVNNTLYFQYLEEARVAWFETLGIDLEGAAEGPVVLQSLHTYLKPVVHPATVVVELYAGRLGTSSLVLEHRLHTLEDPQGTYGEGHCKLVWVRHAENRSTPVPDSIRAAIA

[2] = biological target: T2, YbdB (Escherichia coli, UniProt P0A8Y8); experiment: as above; type: biochemical; conditions: 0.2 mM substrate, 100 mM triethanolamine pH 8, 25 °C, 0.4 mM DTNB
T2 construct: gene entH; full-length in pET29a, expressed in E. coli BL21(DE3), clarified lysate
T2 sequence (P0A8Y8 1-137): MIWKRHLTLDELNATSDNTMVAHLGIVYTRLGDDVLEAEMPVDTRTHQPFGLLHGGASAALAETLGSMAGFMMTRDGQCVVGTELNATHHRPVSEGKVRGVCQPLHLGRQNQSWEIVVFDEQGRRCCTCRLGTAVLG

| Structure (SMILES) | DTNB assay on clarified lysate, empty-vector lysate control [1] | DTNB assay on clarified lysate, empty-vector lysate control [2] |
| --- | --- | --- |
| CC(C)(COP(=O)(O)OP(=O)(O)OC[C@H]1O[C@@H](n2cnc3c(N)ncnc32)[C@H](O)[C@@H]1OP(=O)(O)O)[C@@H](O)C(=O)NCCC(=O)NCCSC(=O)C1CCCCC1 [CHC CoA, cyclohexanecarboxylic acid coenzyme A] | despite activity being found with CHC CoA, no activity was found with CHC-NAC | – |
| CC(O)CC(=O)SCCNC(=O)CCNC(=O)[C@H](O)C(C)(C)COP(=O)(O)OP(=O)(O)OC[C@H]1O[C@@H](n2cnc3c(N)ncnc32)[C@H](O)[C@@H]1OP(=O)(O)O (mixture of isomers) [DLBH CoA, DL-β-hydroxybutyryl CoA] | PA2801 was found to have activity towards the aliphatic CoA esters: DLBH CoA | – |
| CCCCCCCCCCCCCCCCC(=O)SCCNC(=O)CCNC(=O)[C@H](O)C(C)(C)COP(=O)(O)OP(=O)(O)OC[C@H]1O[C@@H](n2cnc3c(N)ncnc32)[C@H](O)[C@@H]1OP(=O)(O)O [nHD CoA, n-heptadecanoyl CoA] | – | YbdB was found to only have activity towards Bz CoA and nHD CoA |
| CC(C)(COP(=O)(O)OP(=O)(O)OC[C@H]1O[C@@H](n2cnc3c(N)ncnc32)[C@H](O)[C@@H]1OP(=O)(O)O)[C@@H](O)C(=O)NCCC(=O)NCCSC(=O)c1ccccc1 [Bz CoA, Benzoyl CoA] | – | YbdB was found to only have activity towards Bz CoA and nHD CoA |
